A melting point compilation (Tetko et al.; mined from patent text by program, amines drawn as free bases though some values may be those of a salt)

Q: Which melting point does the source give for `O=[N+]([O-])c1nccn1C(Br)CBr` (stereo not drawn) here?
A: Its melting point is 102 to 106 °C.

Q: For `CC(=O)c1cn(S(=O)(=O)c2ccccc2)c2nccc(Cl)c12`, which melting point is on record?
A: The melting point was 160 to 162 °C.

Q: With `O=C(Nc1ccccc1[N+](=O)[O-])C12CC3CC(CC(C3)C1)C2` as the compound, how does the melting point read?
A: The melting point was 111 to 114 °C.

Q: For `O=C(Nc1cccc2c1C(=O)N(CC(=O)N1CCC(CO)CC1)C2=O)c1ccc(Cl)s1`, which melting point is on record?
A: Its melting point is 198 °C.

Q: Which melting point does the source give for `Cn1ccnc1CCc1cc2c(cc1O)CCO2` here?
A: The melting point was 190 to 191 °C.

Q: Which melting point does the source give for `COC(=O)C1=C(CCc2ccccc2OC)NC(CC(=O)N2CCN(CC(=O)NC(C)C)CC2)=C(C(=O)OC)C1c1c(Cl)cccc1Cl` (stereo not drawn) here?
A: The melting point was 161 to 163 °C.

Q: For `Cn1cc2c3c(cccc31)C(=O)NCC2`, which melting point is on record?
A: Its melting point is 194 to 195 °C.

Q: Which melting point does the source give for `CCCN(C(=O)COc1c(OC)cccc1OC)C1CCc2c(ccc(O)c2O)C1` (stereo not drawn) here?
A: Its melting point is 157 to 158 °C.

Q: Which melting point does the source give for `CCOC(=O)c1ccc(C2=CCCCC2)cc1` here?
A: The melting point was 66 °C.

Q: For `O=[N+]([O-])c1ccccc1SN(CCO)CCO`, which melting point is on record?
A: The melting point was 82 to 86 °C.

Q: With `O=C(O)c1cccc(CN2CCN(c3ccc(NC(=O)c4ccccc4-c4ccc(C(F)(F)F)cc4)cc3)CC2)c1` as the compound, how does the melting point read?
A: The melting point was 225 to 227 °C.

Q: Which melting point does the source give for `CC(C)(C)OC(=O)N1CCN(c2ccc(-c3ccnc(Cl)n3)cn2)CC1` here?
A: The melting point was 182 to 183 °C.

Q: For `O=C1CCC(N2Cc3c(OCc4ccc(CN5CCN(S(=O)(=O)C6CC6)CC5)cc4)cccc3C2=O)C(=O)N1` (stereo not drawn), which melting point is on record?
A: The melting point was 145 to 147 °C.

Q: Which melting point does the source give for `CNC(=O)CCc1cn(Cc2ccc(C(=O)O)cc2OC)c2cc(C(=O)NCC3CCCC3)ccc12` here?
A: Its melting point is 274 to 275 °C.

Q: For `Cc1cc(-c2cccc([N+](=O)[O-])c2)c2ccccc2n1`, which melting point is on record?
A: The melting point was 157 °C.

Q: With `CN1CCC(n2nc(-c3c(-c4ccccc4)nn4ccccc34)ccc2=O)CC1` as the compound, how does the melting point read?
A: Its melting point is 139 to 140 °C.

Q: With `CC[Si](CC)(CC)c1ccccc1S(=O)(=O)NC(=O)Nc1nc(OC)cc(OC)n1` as the compound, how does the melting point read?
A: Its melting point is 136 °C.

Q: For `CCCCCC(C)N(Cc1ccc(C(C)(C)C)cc1)C(Nc1ccc(OC)cc1OC)=C1C(=O)COC1=O` (stereo not drawn), which melting point is on record?
A: Its melting point is 115 to 117 °C.

Q: Which melting point does the source give for `O=c1cc(-c2ccncc2)nc2n1CCC(C(F)(F)F)N2` (stereo not drawn) here?
A: Its melting point is 302 to 304 °C.

Q: Which melting point does the source give for `CCCCCCCCSc1nc(-c2ccccc2)c(-c2ccccc2)[nH]1` here?
A: Its melting point is 133 to 134 °C.

Q: With `O=C1CC(c2cccc(-n3ccnn3)c2)=Nc2ccc(-c3ccc(F)cc3)cc2N1` as the compound, how does the melting point read?
A: The melting point was 218 to 220 °C.

Q: With `Nc1nonc1-c1nc2ccccc2n1CC(=NO)c1ccc(Br)cc1` as the compound, how does the melting point read?
A: The melting point was 198 to 201 °C.

Q: With `COc1ccc(N2CCC(c3c(N)nc(N)[nH]c3=O)CC2)cc1` as the compound, how does the melting point read?
A: Its melting point is 308 °C.

Q: Which melting point does the source give for `C=CCc1cc2c(cc1O)C(C)(C)C(O)O2` (stereo not drawn) here?
A: Its melting point is 66 to 67 °C.

Q: Which melting point does the source give for `COC(=O)c1cc(OCc2ccc(OCc3nc(-c4ccco4)oc3C)c(OC)c2)nn1-c1ccccc1` here?
A: The melting point was 146 to 147 °C.

Q: Which melting point does the source give for `N#Cc1ccc2c(c1)COC2c1ccc(F)cc1` (stereo not drawn) here?
A: The melting point was 96 to 98 °C.

Q: Which melting point does the source give for `CCOC(=O)C(Cc1ccc(C(F)(F)F)cc1)C(=O)c1ccc(F)c(F)c1` (stereo not drawn) here?
A: Its melting point is 48 to 49 °C.

Q: With `COc1ccc(-c2ccc3n[nH]c(=O)n3n2)cc1F` as the compound, how does the melting point read?
A: The melting point was 289 to 290 °C.

Q: With `COc1ccc(C(=NO)c2c(F)cccc2F)c(Cl)c1Cl` as the compound, how does the melting point read?
A: The melting point was 180 to 186 °C.

Q: Which melting point does the source give for `NC(=O)c1sc2nccc(N3CCCN(c4ccc([N+](=O)[O-])cc4)CC3)c2c1N` here?
A: The melting point was 244 to 248 °C.

Q: Which melting point does the source give for `O=C(C=Cc1ccc(N2CCCC2)nc1)N1CCc2c([nH]c3ccccc23)C1c1ccc2c(c1)CCO2` (stereo not drawn) here?
A: Its melting point is 201 °C.

Q: For `CCC(=O)Oc1n[nH]c(=O)c2nc3cc(Cl)ccc3c(O)c12`, which melting point is on record?
A: The melting point was 275 to 278 °C.

Q: With `COc1ccc(C(=O)Nc2cccnc2Cl)c2c1oc1ccccc12` as the compound, how does the melting point read?
A: The melting point was 192 °C.

Q: With `CCCCCS(=O)(=O)NCC(=O)O` as the compound, how does the melting point read?
A: The melting point was 87 to 90 °C.

Q: With `COc1ccc(Cl)cc1C(=O)NCCc1ccc(-c2ccco2)c(S(N)(=O)=O)c1` as the compound, how does the melting point read?
A: Its melting point is 195 °C.

Q: Which melting point does the source give for `Cc1ccc2c(NCc3ccc(NC(=O)c4ccc(Cl)cc4)cc3)nc(N3CCCCCC3)nc2c1` here?
A: The melting point was 192 to 194 °C.

Q: Which melting point does the source give for `O=C(N[C@@H]1CCNC[C@H]1O)c1ccccc1` (relative stereo) here?
A: The melting point was 210 °C.

Q: With `CCOP(=O)(CCc1cn(-c2ccccc2)nc1O)OCC` as the compound, how does the melting point read?
A: Its melting point is 121 to 122 °C.

Q: For `O=C(Nc1cccc(C(F)(F)F)c1)c1ccccc1SSc1ccccc1C(=O)Nc1cccc(C(F)(F)F)c1`, which melting point is on record?
A: Its melting point is 167 to 168 °C.

Q: For `Cc1cnc(CCCCNc2ncc(Cc3ccc(CO)nc3)c(=O)[nH]2)c(Br)c1`, which melting point is on record?
A: The melting point was 150 to 152 °C.

Q: With `Cc1c(CNCC(C)(C)O)n(C)c2c(C)c(NC(=O)c3ccc(OC[C@@H]4CCCO4)cc3F)ccc12` as the compound, how does the melting point read?
A: The melting point was 131 to 132 °C.

Q: With `CCOC(CI)=Nc1ccc(Cl)cc1C(=O)c1ccccc1` as the compound, how does the melting point read?
A: Its melting point is 67 to 68 °C.

Q: Which melting point does the source give for `COc1cccc(Cc2nc3c(cnn3C(CCCc3ccccc3)C(C)O)c(=O)[nH]2)c1` (stereo not drawn) here?
A: The melting point was 54 °C.

Q: For `CC1(C2CCC3C4CCC5CC6OC6CC5(C)C4C(=O)CC32C)OCCO1` (stereo not drawn), which melting point is on record?
A: The melting point was 159 to 160 °C.

Q: Which melting point does the source give for `Cc1oc(-c2ccc3ccccc3c2)nc1COc1ccc(CCCC2OCCO2)cc1` here?
A: Its melting point is 141 to 142 °C.

Q: With `CCc1ccc(Oc2ccc(N3CCN(c4cccc(C)c4)CC3)nn2)cc1` as the compound, how does the melting point read?
A: The melting point was 107 °C.

Q: With `Cc1c[nH]c2ccc(Nc3ncnc4cc(-c5ccccc5)sc34)cc12` as the compound, how does the melting point read?
A: Its melting point is 221 to 223 °C.

Q: For `Cn1nc(-c2ccccc2)nc1-c1ccccn1`, which melting point is on record?
A: The melting point was 106 to 108 °C.
